Test results: US20060069132A1, “Azolecarboxamide herbicides” (priority 2004, published 2006)

How the values were obtained:
barnyardgrass [1] = assay: Test A pre-/postemergence herbicide test; format: in vivo, Echinochloa crus-galli; conditions: for Plant response rating, Barnyardgrass: Postemergence; for Barnyardgrass plant response rating: Preemergence
How it was run: (§1)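 Pre: seeded sandy loam, directed soil spray, compound in non-phytotoxic solvent + surfactant. Post: 1–2-leaf plants (2–10 cm), sprayed to runoff. Greenhouse ~10 d; visual injury vs untreated, 0–100 scale.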

large crabgrass [2] = assay: Test A pre-/postemergence herbicide test; format: in vivo, Digitaria sanguinalis; conditions: for Plant response rating, Crabgrass, Large: Postemergence; for Crabgrass, Large plant response rating: Preemergence
How it was run: as §1

giant foxtail [3] = assay: Test A pre-/postemergence herbicide test; format: in vivo, Setaria faberi; conditions: for Plant response rating, Foxtail, Giant: Postemergence; for Foxtail, Giant plant response rating: Preemergence
How it was run: as §1

morningglory [4] = assay: Test A pre-/postemergence herbicide test; format: in vivo, Ipomoea spp.; conditions: for Plant response rating, Morningglory: Postemergence; for Morningglory plant response rating: Preemergence
How it was run: as §1

redroot pigweed = assay: Test A pre-/postemergence herbicide test; format: in vivo, Amaranthus retroflexus; conditions: for Plant response rating, Pigweed: Postemergence; for Pigweed plant response rating: Preemergence
How it was run: as §1

velvetleaf [5] = assay: Test A pre-/postemergence herbicide test; format: in vivo, Abutilon theophrasti; conditions: for Plant response rating, Velvetleaf: Postemergence; for Velvetleaf plant response rating: Preemergence
How it was run: as §1

barnyardgrass [6] = assay: Test B pre-/postemergence herbicide test; format: in vivo, Echinochloa crus-galli
How it was run: (§2)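 Evaluation is visual, comparing treated with control plants on a scale where 0 means no effect and 100 means full control. Treatments were preemergence, or postemergence on seedlings 2–18 cm tall, and held 13–15 days in the greenhouse.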

Surinam grass = assay: Test B pre-/postemergence herbicide test; format: in vivo, Urochloa decumbens
How it was run: (§3)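 Greenhouse pot assay with simultaneous preemergence (treated seed) and postemergence (2–18 cm seedlings) applications of surfactant-containing, non-phytotoxic solvent formulations. Response scored visually 13–15 days later on a 0–100 scale, 100 meaning complete control.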

cocklebur = assay: Test B pre-/postemergence herbicide test; format: in vivo, Xanthium strumarium
How it was run: as §2

corn = assay: Test B pre-/postemergence herbicide test; format: in vivo, Zea mays; conditions: for Corn plant response rating: Preemergence, 500 g ai/ha, scale 0 to 100
How it was run: as §3

large crabgrass [7] = assay: Test B pre-/postemergence herbicide test; format: in vivo, Digitaria sanguinalis
How it was run: as §3

giant foxtail [8] = assay: Test B pre-/postemergence herbicide test; format: in vivo, Setaria faberi
How it was run: as §3

lambsquarters = assay: Test B pre-/postemergence herbicide test; format: in vivo, Chenopodium album
How it was run: as §3

morningglory [9] = assay: Test B pre-/postemergence herbicide test; format: in vivo, Ipomoea coccinea
How it was run: as §2

pigweed = assay: Test B pre-/postemergence herbicide test; format: in vivo, Amaranthus retroflexus
How it was run: as §3

velvetleaf [10] = assay: Test B pre-/postemergence herbicide test; format: in vivo, Abutilon theophrasti
How it was run: as §3

blackgrass = assay: Test B postemergence herbicide test; format: in vivo, Alopecurus myosuroides; conditions: scale 0 (no effect) to 100 (complete control); for Blackgrass plant response rating: 125 g ai/ha; for Plant response rating, Blackgrass: 500 g ai/ha, visual rating after 13 to 15 days
How it was run: (§4)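 Each value is a visual 0–100 response rating taken against controls 13 to 15 days after treatment in the greenhouse. Plants received formulated chemical postemergence at the 1- to 4-leaf stage or, in flooded paddy, at the 2-leaf stage.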

wheat = assay: Test B postemergence herbicide test; format: in vivo, Triticum aestivum; parameters: key to Wheat plant response rating: 0 = no effect, 100 = complete control; conditions: scale 0 (no effect) to 100 (complete control); for Plant response rating, Wheat: Postemergence, 500 g ai/ha, visual rating after 13 to 15 days
How it was run: (§5)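 Read-out: visual comparison with controls, scored 0 to 100, where 100 means complete control and 0 no effect. Formulated chemicals were applied postemergence to plants 2–18 cm tall (1- to 4-leaf), or to flooded-paddy plants at the 2-leaf stage, then held 13 to 15 days under glass.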

wild oat = assay: Test B postemergence herbicide test; format: in vivo, Avena fatua; conditions: scale 0 (no effect) to 100 (complete control); for Oat, Wild plant response rating: 125 g ai/ha; for Plant response rating, Oat, Wild: 500 g ai/ha, visual rating after 13 to 15 days
How it was run: as §5

rice = assay: Test B flooded paddy test; format: in vivo, Oryza sativa; conditions: 1000 g ai/ha, visual rating, scale 0 to 100 (0 no effect, 100 complete control), 13 to 15 days
How it was run: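 Greenhouse test; postemergence application to plants at 1–4 leaves (2–18 cm); paddy species at 2 leaves; evaluated visually vs controls at 13–15 days; scale 0–100 (100 = complete control).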

[11] = tested on: small flower umbrella sedge; assay: Test B flooded paddy test; format: in vivo, Cyperus difformis; conditions: 1000 g ai/ha, visual rating, scale 0 to 100 (0 no effect, 100 complete control), 13 to 15 days
How it was run: as §4

ducksalad = assay: Test B flooded paddy test; format: in vivo, Heteranthera limosa; conditions: 1000 g ai/ha, visual rating, scale 0 to 100 (0 no effect, 100 complete control), 13 to 15 days
How it was run: as §4

barnyardgrass [12] = assay: Test B flooded paddy test; format: in vivo, Echinochloa crus-galli; conditions: 1000 g ai/ha, visual rating, scale 0 to 100 (0 no effect, 100 complete control), 13 to 15 days
How it was run: as §4

[13] = 500 g ai/ha, 0 to 100 scale, 0 no effect, 100 complete control
[14] = 2000 g ai/ha, 0 to 100 scale, 0 no effect, 100 complete control
[15] = 500 g ai/ha, visual rating, 0 to 100 scale (0 no effect, 100 complete control)
[16] = Postemergence, 125 g ai/ha, scale 0 (no effect) to 100 (complete control)
[17] = Postemergence, 500 g ai/ha, visual rating after 13 to 15 days, scale 0 (no effect) to 100 (complete control)
[18] = Preemergence, 500 g ai/ha, scale 0 to 100
[19] = preemergence, 125 g ai/ha, 0 to 100 scale, 0 is no effect, 100 is complete control
[20] = postemergence, 125 g ai/ha, visual rating, scale 0 (no effect) to 100 (complete control)

CCCCn1nc(C(C)(C)C)cc1C(=O)Nc1cccc(C(=O)N(CC)CC)c1 [Compound 40]
Plant response rating, Barnyardgrass (barnyardgrass [1]; [13]): 0 | Plant response rating, Barnyardgrass (barnyardgrass [1]; [14]): 0 | Barnyardgrass plant response rating (barnyardgrass [1]; [15]): 0 | Barnyardgrass plant response rating (barnyardgrass [1]; [14]): 15 | Plant response rating, Crabgrass, Large (large crabgrass [2]; [13]): 15 | Plant response rating, Crabgrass, Large (large crabgrass [2]; [14]): 0 | Crabgrass, Large plant response rating (large crabgrass [2]; [15]): 5 | Crabgrass, Large plant response rating (large crabgrass [2]; [14]): 15 | Plant response rating, Foxtail, Giant (giant foxtail [3]; [13]): 0 | Plant response rating, Foxtail, Giant (giant foxtail [3]; [14]): 0 | Foxtail, Giant plant response rating (giant foxtail [3]; [15]): 0 | Foxtail, Giant plant response rating (giant foxtail [3]; [14]): 5 | Plant response rating, Morningglory (morningglory [4]; [13]): 0 | Plant response rating, Morningglory (morningglory [4]; [14]): 0 | Morningglory plant response rating (morningglory [4]; [15]): 5 | Morningglory plant response rating (morningglory [4]; [14]): 10 | Plant response rating, Pigweed (redroot pigweed; [13]): 0 | Plant response rating, Pigweed (redroot pigweed; [14]): 0 | Pigweed plant response rating (redroot pigweed; [15]): 0 | Pigweed plant response rating (redroot pigweed; [14]): 15 | Plant response rating, Velvetleaf (velvetleaf [5]; [13]): 0 | Plant response rating, Velvetleaf (velvetleaf [5]; [14]): 0 | Velvetleaf plant response rating (velvetleaf [5]; [15]): 5 | Velvetleaf plant response rating (velvetleaf [5]; [14]): 15 | Barnyardgrass plant response rating (barnyardgrass [6]; [16]): 10 | Plant response rating, Barnyardgrass (barnyardgrass [6]; [17]): 10 | Barnyardgrass plant response rating (barnyardgrass [6]; [18]): 40 | Plant response rating, Surinam Grass (Surinam grass; [17]): 20 | Surinam Grass plant response rating (Surinam grass; [18]): 10 | Plant response rating, Surinam Grass (Surinam grass; [19]): 0 | Cocklebur plant response rating (cocklebur; [16]): 10 | Plant response rating, Cocklebur (cocklebur; [17]): 50 | Cocklebur plant response rating (cocklebur; [18]): 0 | Corn plant response rating (corn): 0 | Crabgrass, Large plant response rating (large crabgrass [7]; [16]): 10 | Plant response rating, Crabgrass, Large (large crabgrass [7]; [17]): 20 | Crabgrass, Large plant response rating (large crabgrass [7]; [18]): 70 | Foxtail, Giant plant response rating (giant foxtail [8]; [16]): 0 | Plant response rating, Foxtail, Giant (giant foxtail [8]; [17]): 20 | Foxtail, Giant plant response rating (giant foxtail [8]; [18]): 10 | Plant response rating, Foxtail, Giant (giant foxtail [8]; [19]): 0 | Lambsquarters plant response rating (lambsquarters; [16]): 40 | Plant response rating, Lambsquarters (lambsquarters; [17]): 70 | Lambsquarters plant response rating (lambsquarters; [18]): 80 | Plant response rating, Lambsquarters (lambsquarters; [19]): 40 | Morningglory plant response rating (morningglory [9]; [18]): 10 | Plant response rating, Pigweed (pigweed; [17]): 60 | Pigweed plant response rating (pigweed; [18]): 60 | Plant response rating, Pigweed (pigweed; [19]): 30 | Plant response rating, Velvetleaf (velvetleaf [10]; [17]): 20 | Velvetleaf plant response rating (velvetleaf [10]; [18]): 10 | Plant response rating, Velvetleaf (velvetleaf [10]; [19]): 0 | Blackgrass plant response rating (blackgrass; Postemergence): 10 | Plant response rating, Blackgrass (blackgrass; Postemergence): 20 | Plant response rating, Wheat (wheat): 30 | Oat, Wild plant response rating (wild oat; Postemergence): 0 | Plant response rating, Oat, Wild (wild oat; Postemergence): 10 | Rice plant response rating (rice): 0 | Sedge, Umbrella plant response rating [11]: 30 | Ducksalad plant response rating (ducksalad): 0 | Barnyardgrass plant response rating (barnyardgrass [12]): 0

C=Cn1nc(C(C)(C)C)cc1C(=O)Nc1cccc(C(=O)OCC)c1 [Compound 78]
Plant response rating, Barnyardgrass (barnyardgrass [1]; [13]): 30 | Plant response rating, Barnyardgrass (barnyardgrass [1]; [14]): 40 | Barnyardgrass plant response rating (barnyardgrass [1]; [15]): 20 | Barnyardgrass plant response rating (barnyardgrass [1]; [14]): 45 | Plant response rating, Crabgrass, Large (large crabgrass [2]; [13]): 20 | Plant response rating, Crabgrass, Large (large crabgrass [2]; [14]): 35 | Crabgrass, Large plant response rating (large crabgrass [2]; [15]): 60 | Crabgrass, Large plant response rating (large crabgrass [2]; [14]): 90 | Plant response rating, Foxtail, Giant (giant foxtail [3]; [13]): 20 | Plant response rating, Foxtail, Giant (giant foxtail [3]; [14]): 60 | Foxtail, Giant plant response rating (giant foxtail [3]; [15]): 55 | Foxtail, Giant plant response rating (giant foxtail [3]; [14]): 70 | Plant response rating, Morningglory (morningglory [4]; [13]): 15 | Plant response rating, Morningglory (morningglory [4]; [14]): 25 | Morningglory plant response rating (morningglory [4]; [15]): 25 | Morningglory plant response rating (morningglory [4]; [14]): 40 | Plant response rating, Pigweed (redroot pigweed; [13]): 85 | Plant response rating, Pigweed (redroot pigweed; [14]): 90 | Pigweed plant response rating (redroot pigweed; [15]): 80 | Pigweed plant response rating (redroot pigweed; [14]): 90 | Plant response rating, Velvetleaf (velvetleaf [5]; [14]): 50 | Velvetleaf plant response rating (velvetleaf [5]; [15]): 30 | Velvetleaf plant response rating (velvetleaf [5]; 2000 g ai/ha, visual rating, 0 to 100 scale (0 no effect, 100 complete control)): 50 | Plant response rating, Barnyardgrass (barnyardgrass [6]; [17]): 30 | Barnyardgrass plant response rating (barnyardgrass [6]; [18]): 0 | Barnyardgrass plant response rating (barnyardgrass [6]; [20]): 30 | Plant response rating, Barnyardgrass (barnyardgrass [6]; [19]): 0 | Plant response rating, Surinam Grass (Surinam grass; [17]): 20 | Surinam Grass plant response rating (Surinam grass; [20]): 20 | Plant response rating, Surinam Grass (Surinam grass; [19]): 0 | Plant response rating, Cocklebur (cocklebur; [17]): 100 | Cocklebur plant response rating (cocklebur; [18]): 0 | Cocklebur plant response rating (cocklebur; [20]): 80 | Plant response rating, Cocklebur (cocklebur; [19]): 0 | Corn plant response rating (corn): 0 | Plant response rating, Corn (corn; [19]): 0 | Plant response rating, Crabgrass, Large (large crabgrass [7]; [17]): 30 | Crabgrass, Large plant response rating (large crabgrass [7]; [18]): 10 | Crabgrass, Large plant response rating (large crabgrass [7]; [20]): 20 | Plant response rating, Crabgrass, Large (large crabgrass [7]; [19]): 0 | Plant response rating, Foxtail, Giant (giant foxtail [8]; [17]): 30 | Foxtail, Giant plant response rating (giant foxtail [8]; [18]): 30 | Foxtail, Giant plant response rating (giant foxtail [8]; [20]): 30 | Plant response rating, Foxtail, Giant (giant foxtail [8]; [19]): 10 | Plant response rating, Lambsquarters (lambsquarters; [17]): 80 | Lambsquarters plant response rating (lambsquarters; [20]): 70 | Plant response rating, Lambsquarters (lambsquarters; [19]): 0 | Plant response rating, Morningglory (morningglory [9]; [19]): 0 | Plant response rating, Pigweed (pigweed; [17]): 90 | Pigweed plant response rating (pigweed; [20]): 80 | Plant response rating, Pigweed (pigweed; [19]): 0 | Plant response rating, Velvetleaf (velvetleaf [10]; [17]): 80 | Velvetleaf plant response rating (velvetleaf [10]; [20]): 70 | Plant response rating, Velvetleaf (velvetleaf [10]; [19]): 10 | Plant response rating, Blackgrass (blackgrass; Postemergence): 30 | Blackgrass plant response rating (blackgrass; postemergence, visual rating): 20 | Plant response rating, Wheat (wheat): 30 | Wheat plant response rating (wheat; postemergence, 125 g ai/ha, visual rating): 30 | Plant response rating, Oat, Wild (wild oat; Postemergence): 20 | Oat, Wild plant response rating (wild oat; postemergence, visual rating): 10 | Rice plant response rating (rice): 40 | Sedge, Umbrella plant response rating [11]: 80 | Ducksalad plant response rating (ducksalad): 30 | Barnyardgrass plant response rating (barnyardgrass [12]): 30
